According to PMC9048505 (RSC Advances, 2020):

Experiments:
[1] = test system: MCF-7; test: In vitro anti-proliferative activity, MTT assay, MCF-7; type: cell-based, human; conditions: for IC50: Homo sapiens, MCF7, MTT, 24 h treatment, mean ± S.D. of three separate experiments
Procedure: (§1) The cells were obtained from ATCC (American Type Culture Collection) via the Holding company for biological products and vaccines (VACSERA) (Cairo, Egypt). […] After incubation period, the cell lines were treated with different concentration of the synthesized compounds and incubated for 24 h. After treatment by 24 h, 20 μL of MTT solution (5 mg mL^−1) was added and incubated for 4 h. Dimethyl sulfoxide (100 μL) was added into each well to dissolve the formed purple formazan. […] The relative cell viability in percentage was calculated as (A570 of treated samples/A570 of untreated sample) X 100.

[2] = test system: HCT-116; test: In vitro anti-proliferative activity, MTT assay, HCT-116; type: cell-based, human; conditions: for IC50: Homo sapiens, HCT-116, MTT, 24 h treatment, mean ± S.D. of three separate experiments
Procedure: as §1

[3] = test system: HepG-2; test: In vitro anti-proliferative activity, MTT assay, HepG-2; type: cell-based, human; conditions: for IC50: Homo sapiens, HepG2, MTT, 24 h treatment, mean ± S.D. of three separate experiments
Procedure: as §1

[4] = biological target: T1, purified bovine tubulin (Bos taurus, UniProt P81947+Q6B856); test: In vitro tubulin polymerization assay; type: biochemical; conditions: purified bovine tubulin 10 μM, 37 °C; read-out: IC50 Tubulin polymerization inhibition
T1 construct: purified bovine tubulin (10 μM); from tissue; host or cells: bovine
T1 sequence (Q6B856 whole entry): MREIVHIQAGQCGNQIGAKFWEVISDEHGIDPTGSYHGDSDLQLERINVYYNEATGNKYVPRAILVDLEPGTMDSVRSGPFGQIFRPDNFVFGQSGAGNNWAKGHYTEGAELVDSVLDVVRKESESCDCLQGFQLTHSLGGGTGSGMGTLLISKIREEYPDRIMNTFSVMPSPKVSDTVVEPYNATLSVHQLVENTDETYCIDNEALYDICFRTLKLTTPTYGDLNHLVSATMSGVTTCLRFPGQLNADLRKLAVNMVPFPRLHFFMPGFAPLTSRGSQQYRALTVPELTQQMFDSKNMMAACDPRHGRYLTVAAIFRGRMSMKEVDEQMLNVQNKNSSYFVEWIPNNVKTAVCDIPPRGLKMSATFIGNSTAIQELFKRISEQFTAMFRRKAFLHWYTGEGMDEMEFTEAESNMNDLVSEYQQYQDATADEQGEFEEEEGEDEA
T1 sequence (P81947 whole entry): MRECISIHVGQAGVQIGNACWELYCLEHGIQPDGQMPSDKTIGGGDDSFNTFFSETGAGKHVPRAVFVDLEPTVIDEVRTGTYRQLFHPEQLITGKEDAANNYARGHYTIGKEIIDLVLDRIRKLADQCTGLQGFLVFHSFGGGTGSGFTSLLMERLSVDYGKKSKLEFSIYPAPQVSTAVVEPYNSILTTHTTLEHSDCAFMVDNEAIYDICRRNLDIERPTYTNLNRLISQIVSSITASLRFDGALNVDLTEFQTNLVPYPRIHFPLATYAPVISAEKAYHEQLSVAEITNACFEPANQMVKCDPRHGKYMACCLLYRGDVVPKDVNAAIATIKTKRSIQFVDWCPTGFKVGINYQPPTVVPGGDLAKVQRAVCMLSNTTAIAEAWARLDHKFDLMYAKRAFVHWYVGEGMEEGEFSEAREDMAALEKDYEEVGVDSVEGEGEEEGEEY
Procedure: The inhibition assay on microtubule polymerization was evaluated turbidimetrically using a fluorescent plate reader.[52]

Structure (SMILES) | IC50 [1] | IC50 [2] | IC50 [3] | melting point | IC50 [4] | times as active as colchicine against MCF-7 ([1]; ratio of IC50 values) | times as active as colchicine against HCT-116 ([2]; ratio of IC50 values) | times as active as colchicine against HepG-2 ([3]; ratio of IC50 values)
C/C(=N\NC(N)=S)c1ccc(C)cc1 [Compound 3a, (E)-2-(1-(p-Tolyl)ethylidene)hydrazine-1-carbothioamide] | > 50 µM | > 50 µM | > 50 µM | – | – | – | – | –
COc1ccc(/C(C)=N/NC(N)=S)cc1OC [Compound 3b, (E)-2-(1-(3,4-Dimethoxyphenyl)ethylidene)hydrazine-1-carbothioamide] | 22.4 ± 1 µM | 17.3 ± 1.4 µM | 12.9 ± 0.4 µM | 205 to 207 °C | 0.0445 ± 0.0023 µM | – | – | –
COc1ccc(/C=C2/N=C(N/N=C(\C)c3ccc(C)cc3)SC2=O)cc1 [Compound 4a, 4-((E)-4-Methoxybenzylidene)-2-(2-((E)-1-(p-tolyl)ethylidene)hydrazinyl) thiazol-5(4H)-one] | > 50 µM | 45.6 ± 3.5 µM | 34 ± 30.9 µM | 248 to 250 °C | – | – | – | –
C/C(=N\NC1=N/C(=C/c2ccc(Cl)cc2)C(=O)S1)c1ccc(C)cc1 [Compound 4b, 4-((E)-4-Chlorobenzylidene)-2-(2-((E)-1-(p-tolyl)ethylidene)hydrazinyl) thiazol-5(4H)-one] | 22.4 ± 1 µM | 18.2 ± 1.3 µM | 11.14 ± 0.1 µM | 266 to 268 °C | – | – | – | –
C/C(=N\NC1=N/C(=C/c2ccc(O)cc2)C(=O)S1)c1ccc(C)cc1 [Compound 4c, 4-((E)-4-Hydroxybenzylidene)-2-(2-((E)-1-(p-tolyl)ethylidene)hydrazinyl) thiazol-5(4H)-one] | 41.8 ± 1.2 µM | 38.5 ± 2.5 µM | 35.2 ± 0.8 µM | 272 to 274 °C | – | – | – | –
C/C(=N\NC1=N/C(=C/c2ccc(Cl)cc2Cl)C(=O)S1)c1ccc(C)cc1 [Compound 4d, 4-((E)-2,4-Dichlorobenzylidene)-2-(2-((E)-1-(p-tolyl)ethylidene)hydrazinyl) thiazol-5(4H)-one] | 14.8 ± 0.6 µM | 10.6 ± 0.4 µM | 6.6 ± 0.1 µM | > 300 °C | 0.0197 ± 0.0008 µM | – | – | –
COc1ccc(/C=C2/N=C(N/N=C(\C)c3ccc(C)cc3)SC2=O)cc1OC [Compound 4e, 4-((E)-3,4-Dimethoxybenzylidene)-2-(2-((E)-1-(p-tolyl)ethylidene)hydrazinyl) thiazol-5(4H)-one] | 18.2 ± 0.5 µM | 13 ± 0.2 µM | 12.44 ± 0.1 µM | 254 to 256 °C | 0.0474 ± 0.0018 µM | – | – | –
C/C(=N\NC1=N/C(=C/c2ccc(O)cc2O)C(=O)S1)c1ccc(C)cc1 [Compound 4f, 4-((E)-2,4-Dihydroxybenzylidene)-2-(2-((E)-1-(p-tolyl)ethylidene)hydrazinyl) thiazol-5(4H)-one] | 4.46 ± 0.1 µM | 5.66 ± 0.1 µM | 2.89 ± 0.1 µM | – | 0.00933 ± 0.0003 µM | 2.34 times | 1.64 times | 2.57 times
COc1ccc(/C=C2/N=C(N/N=C(\C)c3ccc(OC)c(OC)c3)SC2=O)cc1 [Compound 4g, 2-(2-((E)-1-(3,4-Dimethoxyphenyl)ethylidene)hydrazinyl)-4-((E)-4-methoxybenzylidene) thiazol-5(4H)-one] | 17.4 ± 0.5 µM | 12.9 ± 0.6 µM | 8.68 ± 0.1 µM | 240 to 242 °C | – | – | – | –
COc1ccc(/C(C)=N/NC2=N/C(=C/c3ccc(O)cc3)C(=O)S2)cc1OC [Compound 4h, 2-(2-((E)-1-(3,4-Dimethoxyphenyl)ethylidene)hydrazinyl)-4-((E)-4-hydroxybenzylidene)thiazol-5(4H)-one] | 48.8 ± 1.4 µM | 41.8 ± 1.6 µM | 37.5 ± 0.8 µM | 290 to 292 °C | – | – | – | –
COc1ccc(/C(C)=N/NC2=N/C(=C/c3ccc(Cl)cc3Cl)C(=O)S2)cc1OC [Compound 4i, 4-((E)-2,4-Dichlorobenzylidene)-2-(2-((E)-1-(3,4-dimethoxyphenyl)ethylid-ene)hydrazineyl) thiazol-5(4H)-one] | 40.1 ± 1.9 µM | 40.5 ± 1.1 µM | 31.9 ± 0.8 µM | > 300 °C | – | – | – | –
COc1ccc(/C=C2/N=C(N/N=C(\C)c3ccc(OC)c(OC)c3)SC2=O)cc1OC [Compound 4j, 4-((E)-3,4-Dimethoxybenzylidene)-2-(2-((E)-1-(3,4-dimethoxyphenyl)ethylid-ene)hydrazinyl)thiazol-5(4H)-one] | 43.3 ± 1.8 µM | 22.9 ± 0.7 µM | 32.6 ± 0.9 µM | 232 to 236 °C | – | – | – | –
COc1ccc(/C(C)=N/NC2=N/C(=C/c3ccc(O)cc3O)C(=O)S2)cc1OC [Compound 4k, 4-((E)-2,4-Dihydroxybenzylidene)-2-(2-((E)-1-(3,4-dimethoxyphenyl)ethylid-ene)hydrazinyl)thiazol-5(4H)-one] | 13.9 ± 0.5 µM | 11.7 ± 0.3 µM | 12.2 ± 0.4 µM | > 300 °C | 0.05001 ± 0.0004 µM | – | – | –
COc1ccc(/C(C)=N/NC2=N/C(=C/c3cccs3)C(=O)S2)cc1OC [Compound 5b, (E)-2-(2-((E)-1-(3,4-Dimethoxyphenyl)ethylidene)hydrazinyl)-4-(thiophen-2-ylmethylene)thiazol-5(4H)-one] | 21.8 ± 1 µM | 18.4 ± 0.2 µM | 17.5 ± 0.7 µM | 208 to 210 °C | – | – | – | –
C/C(=N\NC(N)=S)c1cccs1 [Compound 7a, (E)-2-(1-(Thiophen-2-yl)ethylidene)hydrazine-1-carbothioamide] | > 50 µM | > 50 µM | > 50 µM | – | – | – | – | –
C/C(=N\NC(N)=S)c1ccco1 [Compound 7b, (E)-2-(1-(Furan-2-yl)ethylidene)hydrazine-1-carbothioamide] | > 50 µM | > 50 µM | > 50 µM | – | – | – | – | –
COc1ccc(/C=C2/N=C(N/N=C(\C)c3cccs3)SC2=O)cc1 [Compound 8a, 4-((E)-4-Methoxybenzylidene)-2-(2-((E)-1-(thiophen-2-yl)ethylidene)hydra-zinyl)thiazol-5(4H)-one] | 32.1 ± 1.2 µM | 35.5 ± 2 µM | 26.6 ± 0.9 µM | 243 to 245 °C | – | – | – | –
C/C(=N\NC1=N/C(=C/c2ccc(Cl)cc2)C(=O)S1)c1cccs1 [Compound 8b, 4-((E)-4-Chlorobenzylidene)-2-(2-((E)-1-(thiophen-2-yl)ethylidene)hydra-zinyl)thiazol-5(4H)-one] | 18.2 ± 0.6 µM | 18.7 ± 0.6 µM | 19.5 ± 0.7 µM | 252 to 254 °C | – | – | – | –
C/C(=N\NC1=N/C(=C/c2ccc(O)cc2)C(=O)S1)c1cccs1 [Compound 8c, 4-((E)-4-Hydroxybenzylidene)-2-(2-((E)-1-(thiophen-2-yl)ethylidene)hydra-zinyl)thiazol-5(4H)-one] | 19 ± 0.5 µM | 17.2 ± 0.9 µM | 12.2 ± 0.3 µM | 178 to 180 °C | – | – | – | –
C/C(=N\NC1=N/C(=C/c2ccc(Cl)cc2Cl)C(=O)S1)c1cccs1 [Compound 8d, 4-((E)-2,4-Dichlorobenzylidene)-2-(2-((E)-1-(thiophen-2-yl)ethylidene) hydrazinyl)thiazol-5(4H)-one] | > 50 µM | 48.6 ± 1.8 µM | 45.3 ± 1.2 µM | 274 to 276 °C | – | – | – | –
COc1ccc(/C=C2/N=C(N/N=C(\C)c3cccs3)SC2=O)cc1OC [Compound 8e, 4-((E)-3,4-Dimethoxybenzylidene)-2-(2-((E)-1-(thiophen-2-yl)ethylidene) hydrazinyl) thiazol-5(4H)-one] | 25.8 ± 0.6 µM | 34.7 ± 1 µM | 27.8 ± 0.5 µM | 248 to 250 °C | – | – | – | –
C/C(=N\NC1=N/C(=C/c2ccc(Cl)cc2Cl)C(=O)S1)c1ccco1 [Compound 8j, 4-((E)-2,4-Dichlorobenzylidene)-2-(2-((E)-1-(furan-2-yl)ethylidene) hydrazinyl) thiazol-5(4H)-one] | > 50 µM | > 50 µM | > 50 µM | 264 to 266 °C | – | – | – | –
C/C(=N\NC1=N/C(=C/c2cccs2)C(=O)S1)c1ccco1 [Compound 9b, (E)-2-(2-((E)-1-(Furan-2-yl)ethylidene)hydrazinyl)-4-(thiophen-2-ylmethylene) thiazol-5(4H)-one] | > 50 µM | > 50 µM | 45.1 ± 0.7 µM | 203 to 205 °C | – | – | – | –
